Tests used:
[1] = xn = mol fraction of the nth substance listed; conditions: 101 kPa, Liquid, Taylor dispersion method, x1 = 0
[2] = 101 kPa, Liquid, Taylor dispersion method

SMILES | binary diffusion coefficient ([1]; 293.15 K) | binary diffusion coefficient ([1]; 298.15 K) | binary diffusion coefficient ([1]; 303.15 K) | binary diffusion coefficient ([1]; 313.15 K) | binary diffusion coefficient ([1]; 323.15 K) | binary diffusion coefficient ([1]; 333.15 K) | binary diffusion coefficient ([1]; 343.15 K) | binary diffusion coefficient ([1]; 353.15 K) | binary diffusion coefficient ([1]; 363.15 K) | binary diffusion coefficient ([1]; 368.15 K) | self diffusion coefficient ([2]; 293.15 K) | self diffusion coefficient ([2]; 298.15 K) | self diffusion coefficient ([2]; 303.15 K) | self diffusion coefficient ([2]; 313.15 K) | self diffusion coefficient ([2]; 323.15 K) | self diffusion coefficient ([2]; 333.15 K) | self diffusion coefficient ([2]; 343.15 K) | self diffusion coefficient ([2]; 353.15 K) | self diffusion coefficient ([2]; 363.15 K) | self diffusion coefficient ([2]; 368.15 K)
[N-]=[N+]=O [nitrous oxide] + O | 1.7e-09 m2/s | 2.05e-09 m2/s | 2.3e-09 m2/s | 2.99e-09 m2/s | 4.02e-09 m2/s | 4.9e-09 m2/s | 5.79e-09 m2/s | 7.09e-09 m2/s | 8.23e-09 m2/s | 8.87e-09 m2/s |  |  |  |  |  |  |  |  |  | 
O [water] |  |  |  |  |  |  |  |  |  |  | 1.7e-09 m2/s | 2.05e-09 m2/s | 2.3e-09 m2/s | 2.99e-09 m2/s | 4.02e-09 m2/s | 4.9e-09 m2/s | 5.79e-09 m2/s | 7.09e-09 m2/s | 8.23e-09 m2/s | 8.87e-09 m2/s

Reference: the NIST ThermoML archive (doi:10.1021/je700717w)
